Data on 1 molecule can be found in patent US6660468B1, “Vitro and in vivo models for screening compounds to prevent glucocorticoid-induced bone destruction” (Board of Trustees of the University of Arkansas, priority 1998, dated 2003).

Data set [1] relates to CFU-F, CFU-OB and osteoclast progenitors in bone marrow cells. Kind of data set: Osteoblastogenesis and osteoclastogenesis in ex vivo bone marrow cell cultures. Also noted: species or system mouse. The following applies: 27 d. The method, then:
One femur from each mouse was flushed with 5 ml of phenol red-free αMEM (Gibco BRL, Gaithersburg, Md.) containing 10% FBS (Hyclone, Logan, Utah) to obtain marrow cells. After the cells were rinsed and resuspended to obtain a single cell suspension, the nucleated cell count was determined using a Coulter Counter. Cells from each animal were cultured separately.
The number of colony-forming unit-fibroblast (CFU-F) and CFU-osteoblast (CFU-OB) present in the bone marrow preparations were determined (16-18). Briefly, cells were seeded at 1.5×10^6 per 10 cm^2 well for the determination of CFU-F number and maintained for 10 days in phenol red-free αMEM containing 15% preselected FBS, 50 μM ascorbic acid and 10 mM β-glycerophosphate (Sigma Chemical Co, St. Louis, Mo.) with one-half of the medium replaced after 5 days. After fixation in neutral buffered formalin and staining with hematoxylin, colonies containing a minimum of 20 fibroblastoid cells were enumerated. Cells were seeded at 2.5×10^6 cells per 10 cm^2 well for the determination of CFU-OB number and cultured for 25-28 days as described above for CFU-F. After fixation in 50% ethanol and 18% formaldehyde, cultures were stained using Von Kossa's method to visualize and enumerate colonies containing mineralized bone matrix.
Osteoclast formation in bone marrow cultures was assessed in replicate cultures (4-6 from each animal) maintained for 9 days in the presence of αMEM, 10% FBS and 10 nM 1.25(OH)2D3 (7). Briefly, marrow cells were cultured at 1.5×10^6 per 2 cm^2 well on 13 mm round Thermanox disks and maintained for 8 days in the presence of 10% FBS in αMEM supplemented with 10^−8 M 1.25(OH)2D3 (provided by Dr. Milan Uskokovic, Hoffman-LaRoche, Nutley, N.J.). At the end of the experiment, cells were processed for the autoradiographic detection of bound ^125I-calcitonin (^125I-CT) and stained for tartrate-resistant acid phosphatase. […] Therefore, mononucleated and multinucleated cells that both bind ^125I-CT and express TRAPase were designated as osteoclastic cells. The number of osteoclasts formed in this assay is a reflection of the number of osteoclast progenitors present in the bone marrow aspirate and the number of stromal/osteoblastic support cells that form during the culture period.
The number of CFU-F colonies, CFU-OB colonies, and osteoclastic cells formed from the marrow cells of each animal was expressed as the number per femur, which was calculated by multiplying the number of colonies or osteoclasts obtained per 10^6 cells seeded at the initiation of the cultures by the total number of marrow cells obtained from the animal.

For data set [2], the system named is Male Swiss Webster mice. Briefly: Bone densitometry (DEXA) in prednisolone-treated mice. To be noted: for Global BMD (% change) / Hindquarters BMD (% change) / Spinal BMD (% change): 27 days. Type of data set: in vivo, mouse. The source says:
(§1) Bone mineral density (BMD) determinations were done at two week intervals to identify the peak adult bone mass of the mice, which was reached between 5 and 6 months-of-age (9). Animals at peak bone mass were used to avoid obscuring the negative impact of glucocorticoid excess on bone mineral density by the confounding effects of increased linear and radial growth. Before the experiment began, bone mineral density measurements were repeated to allocate the animals into groups (n=4-5) with equivalent spinal density values. […] These doses were administered for 27 days by subcutaneous implantation of slow-release pellets (Innovative Research of America, Sarasota, Fla.). Bone mineral density measurements were obtained at the beginning of the experiment and 27 days post-implantation. For dynamic histomorphometric measurements, tetracycline HCl (30 mg/kg body weight) was given intraperitoneally 17 and 23 days post-implantation. After 27 days, the mice were sacrificed, serum and urine specimens were taken, bone marrow aspirates were obtained from the right femur for ex vivo marrow cell cultures and the left femur and lumbar vertebrae were prepared for histomorphometric analysis. Livers were examined for fatty infiltration as a sign of prednisolone toxicity. The weight of the seminal vesicles (mg/100 g body weight) was used as an index of the androgen status of the animals (12). To help interpret these measurements, a separate group of animals was orchidectomized (n=5).
Dual-energy X-ray absorptiometry (DEXA) was used to determine global (whole body minus the head), spinal and hindquarters bone mineral density in live mice (7,9). The scans done at 27 days after pellet implantation were analyzed using the ‘Compare’ technique, in which the evaluation is based on the exact positioning and region of interest placement of the baseline scan. […] Over the 18 months, the coefficient of variation for the bone mineral density of a plastic-embedded whole mouse skeleton was 3.0% (n=146).

A short description of data set [3]: Food intake, body weight, seminal vesicle weight and hepatic fatty infiltration. It counts as in vivo, mouse. To be noted: mice; for Seminal Vesicle Weight: index of androgen status. The method, then:
Male Swiss Webster mice (Charles River Laboratories, Stone Ridge, N.Y.) were electronically tagged (Biomedic Data System Inc., Maywood, N.J.) and kept in plastic cages (3-5 animals per cage) under standard laboratory conditions with a 12 hr dark, 12 hr light cycle and a constant temperature of 20° C. and humidity of 48%. All mice were fed on a standard rodent diet (Agway RMH 3000, Arlington Heights, Ill.) containing 22% protein, 5% fat, 5% fiber, 6% ash, 3.5 Kcal/g, 1.0 IU vitamin D3/g, 0.97% calcium and 0.85% phosphorus with water ad libitum. The animals and food supply were weighed at one week intervals throughout the experiment. Studies were approved by the UAMS Division of Laboratory and Animal Medicine.
as §1

Data set [4] deals with murine vertebral cancellous bone. It counts as in vivo, mouse. The protocol:
The distal femora and lumbar vertebrae were fixed in 4° C. Millonig's phosphate-buffered 10% formalin, pH 7.4, embedded undecalcified in methyl methacrylate and stained (7,9,13). The histomorphometric examination was done with a computer and digitizer tablet (OsteoMetrics Inc. Version 3.00, Atlanta, Ga.) interfaced to a Zeiss Axioscope (Carl Zeiss, Inc., Thornwood, N.Y.) with a drawing tube attachment. All cancellous measurements were two-dimensional, confined to the secondary spongiosa and made at ×400 magnification (numerical aperture 0.75). The terminology and units used are those recommended by the Histomorphometry Nomenclature Committee of the American Society for Bone and Mineral Research (14). The trabecular width and osteoid width were measured directly. Trabecular spacing and number were calculated (15). Only TRAPase-positive cells were included in the osteoclast perimeter. The rate of bone formation (μm^2/μm/d) and turnover (%/d) were calculated (7).
To directly establish whether glucocorticoids initially accelerate bone resorption in the mouse, the vertebral cancellous bone histology were examined in an additional group of somewhat younger mice (5-mo-old) after 7 days administration of the higher dose of prednisolone or placebo (n=5).

`C[C@]12C=CC(=O)C=C1CC[C@@H]1[C@@H]2[C@@H](O)C[C@@]2(C)[C@H]1CC[C@]2(O)C(=O)CO` [prednisolone]: the CFU-F colonies in data set [1] (higher dose (2.1 mg/kg/d), placebo 1250±374, NS) amounted to 698±104 number per femur. Also, in data set [1] (higher dose), the “Decrease in number of CFU-OB colonies” value stood at 86% and the “Decrease in number of osteoclastic cells” value was 65%. The molecule also displayed a CFU-OB colonies in data set [1] (higher dose, placebo 375±257) of 54±14 number per femur. Also, the “Osteoclastic cells formed in response to 1.25(OH)2D3” value in data set [1] (higher dose, placebo 1387±920) came out at 492±311 number per femur. Further, the “Global BMD (% change)” value in data set [2] (0.7 mg/kg/d s.c. slow-release pellet) is given as −5.0 ± 2.2 % change. In data set [2] (0.7 mg/kg/d), the “Hindquarters BMD (% change)” value is −3.8 ± 8.0 % change and the “Spinal BMD (% change)” value is listed as −6.8 ± 3.2 % change. In data set [2] (1.4 mg/kg/d, pilot studies), the “Effect on bone mineral density” value is given as “invariably causes densitometric evidence of bone loss”. Moreover, the “Global BMD (% change)” value in data set [2] (2.1 mg/kg/d s.c. slow-release pellet) is −6.6 ± 1.9 % change. Moreover, in data set [2] (2.1 mg/kg/d), the “Hindquarters BMD (% change)” value was −3.4 ± 6.9 % change and the “Spinal BMD (% change)” value is on record as −8.7 ± 3.5 % change. The “Effect on bone mineral density” value in data set [2] (pellets releasing 0.5 mg/kg/d (the no effect dose)) is listed as “did not decrease bone mineral density”. In addition, in data set [3] (0.7 mg/kg/d), the “Body Weight” value was found to be 33.8 ± 4.3 g, the “Food Intake” value worked out at 3.6 ± 0.2 g/day and the “Seminal Vesicle Weight” value is reported as 92.7 ± 8.7 mg/100 g body weight. In addition, in data set [3] (2.1 mg/kg/d), the “Body Weight” value is 32.2 ± 4.2 g, the “Food Intake” value is 3.7 ± 0.4 g/day and the “Seminal Vesicle Weight” value came out at 83.1 ± 6.9 mg/100 g body weight. Besides, the Hepatic fatty infiltration result in data set [3] (sign of prednisolone toxicity, 27 days) is recorded as “absent”. Besides, in data set [4] (higher dose, 7 days), the “Decrease in osteoblast perimeter” value came to 59% and the “Increase in osteoclast perimeter” value amounted to 96%. In addition, in data set [4] (mouse, in vivo), the Osteoblast perimeter turned out to be 2.1±1.1% and the Osteoclast perimeter was determined as 1.00±0.41%.
